Patent publication US12275685B2, “Oligo-benzamide analogs and their use in cancer treatment” (Board of Regents, The University of Texas System, priority 2018, dated 2025)

Test system: xenografts of SUM-159 with LIPA KO
Assay: SUM-159 LIPA KO xenografts
Assay type: in vivo, SCID mice
Settings: 10 mg/kg daily
From the text: FIGS. 37A-J: The molecular target of ERX-41 in TNBC is LIPA. […] (FIG. 37B) Knockout clones of LIPA, ACACA, TMEM208, SOAT1 and ARID1A were generated in MDA-MB-231 cells and evaluated for response to ERX-41 using doseresponse curves using CellTiter-Glo assays in vitro. (FIGS. 37C-D) Effect of knockout of LIPA in SUM-159 (FIG. 37C) and MDA-MB436 (FIG. 37D) on dose response curve to ERX-41 using CellTiter-Glo assays in vitro. (FIGS. 37E-F) Dose response curves of SUM-159 parental cells and clones with LIPA KO to thapsigargin (FIG. 37E) and paclitaxel (FIG. 37F). (FIGS. 37G-H) Live cell imaging studies with SYTOX Green to examine ability of 1 μM ERX-41 to induce cell death in parental SUM-159 and SUM-159 clones with LIPA KO, with quantitation (FIG. 37G) and time-lapsed photomicrographs at 0 h and 30 h ((FIG. 37H). (FIGS. 37I-J) SCID mice were implanted with either parental SUM-159 or SUM-159 clones with LIPA KO (n=6, each group) and tumors were allowed to establish (150 mm^3). Following daily intraperitoneal administration of 10 mg/kg ERX-41, tumor sizes were measured and graphed (FIG. 37I), along with mice body weights (FIG. 37J). *p<0.05. **p<0.01; ***p<0.001.
The molecular target of ERX-41 in TNBC is LIPA. […] Knockout clones of LIPA, SLC5A3, SMAP2, TMEM208, SOAT1 and ARID1A were generated in multiple TNBC cells and evaluated for response to ERX-41.

CC(C)COc1cc(C(=O)Nc2ccc(C(=O)N[C@H]3CC[C@H](C)CC3)cc2OCC(C)C)ccc1NC(=O)c1ccc([N+](=O)[O-])c(OCCO)c1 [TK41]
response of SUM-159 LIPA KO xenografts: did not respond
